Data as given in US9458161B1, “TSPO ligands for cancer imaging and treatment” (Vanderbilt University, priority 2011, dated 2016).
Entries after “also recorded” stand apart in the source; their conditions may differ. Like-named read-outs stand apart in the source and are kept apart here. Each block holds one compound with its values, some of them ahead of it.

What was measured:
[1] = tested on: colorectal cancer (CRC); experiment: In vivo combination of PBR06 with Cetuximab in WT and mutant KRAS CRC cohorts; design: species or system mice
Description: This synergism is shown with both wild type (WT) and mutant KRAS colorectal cancer (CRC) cohorts (mice).

[2] = tested on: DiFi human CRC cells; experiment: Immunoblotting of markers in DiFi cells (WT KRAS) after 24 hr drug exposure; format: cell-based
Experimental: In these studies, cultured cells were exposed to drug for 24 hr, harvested, and the protein levels of various markers were assayed by immunoblotting.

[3] = tested on: HCT116 p53−/− human CRC cells; experiment: Immunoblotting of markers in HCT116 p53−/− cells (mutant KRAS) after 24 h drug exposure; format: cell-based
Experimental: In these studies, HCT116 p53−/− human CRC cells were exposed to drug for 24 h, harvested, and the protein levels of various markers were assayed by immunoblotting.

[4] = tested on: LIM 2405 human CRC cells; experiment: Immunoblotting of markers in LIM 2405 cells (mutant B-RAF) after 24 h drug exposure; format: cell-based
Experimental: In these studies, LIM 2405 human CRC cells were exposed to drug for 24 h, harvested, and the protein levels of various markers were assayed by immunoblotting.

[5] = target: T1, TSPO (Rattus norvegicus, UniProt P16257); experiment: Radioligand displacement of [3H]PK 11195 in C6 glioma cell / tumor lysate; format: binding; design: from tissue; host or cells: C6 glioma tumour and normal brain / other tissues of living rats; details: for binding affinity: whole tumor lysate; for binding affinity (in words): tumor lysate / C6 cell lysate
Experimental: Given our focus of targeting TSPO expressed in tumors, affinity assays will be conducted in whole and fractionated tumor lysate.
In this Example Glioma-bearing rats were imaged with [^18F]PBR06 in a microPET system. Dynamic acquisitions were acquired simultaneously upon injection of 70-100 MBq/0.2 mL [^18F]PBR06. Over the course of scanning, arterial blood was collected to derive the input function, with HPLC radiometabolite analysis performed on selected samples for arterial input function correction. Compartmental modeling of the PET data was performed using the corrected arterial input function. Specific tumor cell binding of PBR06 was evaluated by radioligand displacement of [^3H]PK 11195 with PBR06 in vitro and by displacement of [^18F]PBR06 with excess PBR06 in vivo. Immediately following imaging, tumor tissue and adjacent healthy brain were harvested for assay of TSPO protein levels by western blotting and immunohistochemistry.
Radioligand displacement of the high-affinity isoquinoline carboxamide TSPO ligand [^3H]PK 11195 was used to evaluate the specific binding of the non-radioactive analogue PBR06 in C6 glioma cell line homogenates in vitro (FIG. 10). […]

[6] = target: T1, TSPO; experiment: Compartmental binding assay in heavy and light fractions of C6 cell lysate; design: from tissue; host or cells: C6 glioma tumour and normal brain / other tissues of living rats
Description: In order to fully characterize TSPO expression profile in the healthy tissues and C6 cells, this example includes subcellular studies. The present inventors separated two fractions of tissue and C6 cell lysates based on the density difference. […] Based on these two fractions, we performed western blot to determine TSPO expression profile in a variety of healthy tissues and C6 cell lysates. […] Thus, we evaluated the binding potential of VUIIS1008 in different fractions.

[7] = tested on: nuclear TSPO; experiment: Fractional (nuclear) displacement assay against [3H]PK 11195; details: fractional nuclear binding assay, displacement of [3H]PK 11195
Experimental: The characterization strategy can begin with a high-throughput fractional displacement assay developed in our laboratory (FIG. 8). This assay capitalizes upon the fact that PK 11195 binds nuclear and mitochondrial TSPO. Fractionated tumor lysate material containing an equivalent distribution of nuclear and mitochondrial TSPO (32) is incubated with [^3H]PK 11195 and candidate ligands. After incubation, protein is collected by centrifugation and microspotted in triplicate into high-density arrays (˜1 uL). The resultant radioligand displacement of each assay is quantified using a high-resolution digital autoradiography imaging system (BiospaceLab).

[8] = target: T1, TSPO; experiment: Dynamic microPET of [18F]VUIIS-1008 in C6 glioma-bearing rats, with compartmental modeling and in vivo displacement; design: from tissue; host or cells: C6 glioma tumour and normal brain / other tissues of living rats; details: for VT (calculated): mean ± SE; for tracer distribution tumor vs normal brain (in words): C6 glioma
Experimental: Dynamic microPET imaging can be performed as in tumor-bearing and non-tumor-bearing rats. […] […] For displacement studies, ‘cold’ analog (10 mg/kg) are injected via jugular catheter 30 min after radiotracer administration. Prior to PET scanning, tumors are localized in tumor-bearing rats using MRI, including T2-weighted and diffusion-weighted scans. For longitudinal studies, tumor volumes are measured using a three-dimensional, T2-weighted fast spin-echo sequence on a Varian 9.4 T horizontal bore imaging system.
A 3-compartment, 4-rate constant kinetic model can be used to characterize [^18F]PBR06 pharmacokinetics. […] These rate constants can be used to calculate the total volume of distribution (VT) in tissues of interest. Modeling will be carried out for whole brain (excluding tumor) and tumor by fitting time-activity curves (TACs) of each region.
Before PET imaging with ^18F-VUIIS1008, brain tumors were localized with T2-weighted MRI. […] After the initial spike in radioactivity consistent with tracer injection, ^18F-VUIIS1008 rapidly cleared from the plasma. Imaging-matched brains were processed for staining and immunohistochemistry. Using standard hematoxylin and eosin staining to localize the tumor, the present inventors discovered that TSPO expression was significant higher in tumor than in the adjacent healthy brain.
In order to fully evaluate the novel performance of ^18F-VUIIS1008, we have also determined ^18F-VUIIS 1008 pharmacodynamics with arterial input function.

[9] = target: T1, TSPO; experiment: In vivo PET evaluation of [18F]VUIIS-0005 in C6 glioma; design: from tissue; host or cells: C6 glioma tumour and normal brain / other tissues of living rats
Experimental: Dynamic microPET imaging can be performed as in tumor-bearing and non-tumor-bearing rats. […] Dynamic images (120 min) are collected, followed by CT for attenuation correction and cross-platform registration. For displacement studies, ‘cold’ analog (10 mg/kg) are injected via jugular catheter 30 min after radiotracer administration. Prior to PET scanning, tumors are localized in tumor-bearing rats using MRI, including T2-weighted and diffusion-weighted scans. For longitudinal studies, tumor volumes are measured using a three-dimensional, T2-weighted fast spin-echo sequence on a Varian 9.4 T horizontal bore imaging system.

[10] = target: T2, TSPO (Mus musculus, UniProt P50637); experiment: TSPO-PET with 18F-VUIIS1008 in Lrig1-CreERT2;Apcfl/+ mouse model of colorectal cancer; format: in vivo
T2 construct: from tissue; host or cells: colon tumours (Lrig1-CreERT2;Apcfl/+ mice) and pancreatic tumours (Ptf1a-cre;LSL-KrasG12D;Tgfbr2fl/fl mice) in living mice
Experimental: All studies were conducted in accordance with federal and institutional guidelines. Lrig1-CreERT2/+mice (35) were crossed to Apcfl/+mice to generate Lrig1-CreERT2/+; Apcfl/+mice. Six to eight week old mice were injected with 2 mg tamoxifen (Sigma Aldrich) intraperitoneally for three consecutive days to induce tumor formation. Mice were imaged approximately 100 days after injection of tamoxifen and then sacrificed
Colonoscopy (KARL STORZ-SCB Endoscope System) was performed monthly beginning two months after tamoxifen induction. Mice are anesthetized and immobilized using 2% isofluorane anesthesia in 100% oxygen at 2 L/min. Tumor formation within a single mouse was tracked over time. Upon visual detection of distal colon tumors mice were designated for PET imaging.
PET imaging was performed using a dedicated small animal PET scanner (Concorde Microsystems Focus 220) as described. Briefly, mice were maintained under 2% isofluorane anesthesia in 100% oxygen at 2 L/min and kept warm via a circulating water heating pad during the PET scan. Animals were administered 7.4-9.3 MBq of [^18F]-VUIIS1008 intravenously and allowed free access to food and water during a 50 minute uptake period and a 20 minute PET acquisition. Scans were reconstructed using OSEM3D/MAP.

[11] = PBR06 single agent, increasing concentrations, 24 h
[12] = C6 glioma cell lysate / tumor lysate, read-out: IC50, displacement of [3H]PK 11195
[13] = 1-tissue model, tumor, mean (SE in next line)

SMILES: COc1ccc(OC)c(CN(C(=O)CF)c2ccccc2Oc2ccccc2)c1 [PBR06]
effect in combination with Cetuximab (in words) ([1]; WT and mutant KRAS CRC cohorts (mice)): in vivo synergistic effect
tolerability (in words) ([1]; mice): well tolerated among the test subjects
p27 levels (cell cycle arrest) ([2]; PBR06 single agent 10 nM, 24 hr): significantly elevated p27
pERK levels ([2]; PBR06 single agent, increasing concentrations 10 nM-10 uM, 24 hr): modestly elevated levels of pERK
enhancement in the efficacy of C225 by combination with TSPO ligand ([2]; WT KRAS CRC cell line): approximately 10 fold
p27 levels (cell cycle arrest) ([2]; lowest dosage of C225 (+) combined with all dosages of PBR06): significantly elevated levels of p27 could be achieved
cleaved caspase 3 (apoptosis) ([3]; C225 combined with all but the lowest concentration of PBR06): significant levels of cleaved caspase 3 were induced
pERK levels ([3]; PBR06 in combination with elevated concentrations of C225): pERK could be fully inhibited at elevated concentrations of C225 with PBR06
pERK levels [3, 11]: modestly elevated levels of pERK
p27 levels (cell cycle arrest) ([3]; lowest concentration of C225 combined with PBR06 at all concentrations): resulted in elevated p27
p21 induction ([4]; PBR06 in combination with C225, even the lowest dosages of C225): significant induction of p21
pERK levels [4, 11]: elevated levels of pERK
IC50 [5]: ~12.6 nM
IC50 [5, 12]: 12 nM
binding affinity [5]: ~12 nM
binding affinity in heavy (nuclei) and light (mitochondria) fractions (in words) [6]: bind to the light fraction selectively with a high binding affinity

fold higher binding affinity compared with DPA-714 and PBR06 ([5]; C6 cell lysate, against [3H]PK11195): 30 fold
IC50 [5, 12]: ~1 nM
IC50 fold lower than PBR06 or DPA-714 ([5]; against 3H-PK 11195 in tumor lysate): approximately 10 fold
binding affinity (in words) ([5]; listed as VUIIS1008): sub-nanomolar binding affinity
k6 ([8]; 3-tissue model, tumor, mean, listed as VUIIS1008): near-zero K6 in the tumor
SMILES: CCc1cc(CC)n2nc(-c3ccc(OCCF)cc3)c(CC(=O)N(CC)CC)c2n1 [VUIIS-1008]
affinity for nuclear TSPO (in words) [7]: nanomolar binding affinity; also recorded: targets nuclear TSPO
binding affinity in heavy (nuclei) and light (mitochondria) fractions (in words) [6]: comparable high binding affinity of VUIIS1008 in both two fractions

SMILES: COc1ccc(OC)c(CN(C(=O)CF)c2ccccc2Sc2ccccc2)c1 [[^18F]VUIIS-0005]
binding affinity (in words) [5]: improved binding affinity in tumor lysate compared to PBR06 or DPA-714
in vivo uptake distribution (in words) [9]: primarily confined to tumor tissue, with significantly less normal brain uptake compared to ^18F-PBR06

tracer uptake in colon (in words) ([10]; wild type mice): low tracer uptake in the colon
binding affinity [5]: ~1 nM
K1 ([8]; 1-tissue model, brain, mean): 0.3161 mL/g/min
k2 ([8]; 1-tissue model, brain, mean): 0.3048 min⁻¹
VT (calculated) ([8]; 1-tissue model, brain): 1.3 ± 0.2
K1 [8, 13]: 0.3535 mL/g/min
k2 [8, 13]: 0.0964 min⁻¹
VT (calculated) ([8]; 1-tissue model, tumor): 3.6 ± 0.6
K1 ([8]; 2-tissue model, brain, mean): 0.5856 mL/g/min
k2 ([8]; 2-tissue model, brain, mean): 2.0217 min⁻¹
k3 ([8]; 2-tissue model, brain, mean): 0.2903 min⁻¹
k4 ([8]; 2-tissue model, brain, mean): 0.0912 min⁻¹
VT (calculated) ([8]; 2-tissue model, brain): 1.7 ± 0.4
K1 ([8]; 2-tissue model, tumor, mean): 0.5448 mL/g/min
k2 ([8]; 2-tissue model, tumor, mean): 1.2413 min⁻¹
k3 ([8]; 2-tissue model, tumor, mean): 0.1300 min⁻¹
k4 ([8]; 2-tissue model, tumor, mean): 0.0234 min⁻¹
VT (calculated) ([8]; 2-tissue model, tumor): 4.6 ± 0.8
K1 ([8]; 3-tissue model, brain, mean): 0.6925 mL/g/min
k2 ([8]; 3-tissue model, brain, mean): 3.7619 min⁻¹
k3 ([8]; 3-tissue model, brain, mean): 0.8194 min⁻¹
k4 ([8]; 3-tissue model, brain, mean): 0.2569 min⁻¹
k5 ([8]; 3-tissue model, brain, mean): 0.5314 min⁻¹
k6 ([8]; 3-tissue model, brain, mean): 0.1748 min⁻¹
VT (calculated) ([8]; 3-tissue model, brain): 1.4 ± 0.2
K1 ([8]; 3-tissue model, tumor, mean): 0.6449 mL/g/min
k2 ([8]; 3-tissue model, tumor, mean): 2.9459 min⁻¹
k3 ([8]; 3-tissue model, tumor, mean): 0.4597 min⁻¹
k4 ([8]; 3-tissue model, tumor, mean): 0.1371 min⁻¹
k5 ([8]; 3-tissue model, tumor, mean): 0.2304 min⁻¹
VT (calculated) ([8]; 3-tissue model, tumor): 6.4 ± 1.8
k6 ([8]; 3-tissue model, tumor, mean, listed as [18F]VUIIS1008): 0.0574 min⁻¹
increase in tracer levels in plasma on displacement with 'cold' VUIIS-1008 ([8]; in vivo displacement): 25 fold
SMILES: CCc1cc(CC)n2nc(-c3ccc(OCCF)cc3)c(CC(=O)N(CC)CC)c2n1 [[^18F]VUIIS-1008]
tracer uptake in distal colon (in words) ([10]; Lrig1-CreERT2;Apcfl/+ mice with colonoscopy confirmed tumors): increased, focal uptake in the distal colon compared to adjacent non-tumor tissue and wild type controls
binding affinity (in words) [5]: improved binding affinity in tumor lysate compared to PBR06 or DPA-714
stability in plasma, HPLC radiometabolite assay (in words) ([8]; 90 min dynamic PET scan): high stability of this probe in the 90 min dynamic PET scan
tracer distribution tumor vs normal brain (in words) [8]: robust tumor uptake, yet very little normal brain uptake
tracer distribution tumor vs normal brain (in words) ([8]; listed as 18F-VUIIS1008): most of the uptake in the brain was localized to the tumor, with only modest accumulation in the adjacent, normal brain
clearance and accumulation compared with 18F-DPA714 (in words) ([8]; glioma-bearing rats): a similar clearance and accumulation in brain, while a faster clearance and a slower accumulation in tumor
displacement from the tumor by 'cold' VUIIS-1008 (in words) ([8]; in vivo displacement): no detectable displacement from the tumor
